Laboratory results published in patent US11639350B2, “Heteroaryldihydropyrimidine derivatives and methods of treating hepatitis B infections” (Janssen Pharmaceutica NV, priority 2018, dated 2023).
Read-outs that look alike come from different tables or passages of the source.

What was measured:
[1] = Cytotoxicity determination in HepG2.2.15 cells (CCK-8); assay type: cell-based; conditions: human, 6 days of compound treatment, CCK-8, highest concentration 100 μM
Procedure: (§1) HBV replication inhibition by the compounds of this invention as well as cytotoxicity determination was determined in cells infected or transfected with HBV, or cells with stably integrated HBV, such as HepG2.2.15 cells (Sells et al. 1987). The method used herein is as follows.
(§2) The HepG2.2.15 cells were seeded into 96-well plate in 2% FBS (Fetal bovine serum) culture medium at the density of 40,000 cells/well and 5,000 cells/well for HBV inhibitory activity and cytotoxicity determination, respectively. After seeding, the cell plates were incubated at 37° C., 5% CO2 overnight. The next day, medium containing compounds were added to treat the cells for 6 days with medium refreshed once in the middle of the treatment. Eight dose points with 3 folds dilution of each compound were adopted and the highest concentration of the compounds was 10 μM and 100 μM for HBV inhibitory activity and cytotoxicity determination, respectively.
After 6 days of compounds treatment, 20 μl CCK-8 (Cell Counting Kit-8 (Tianjin Biolite company)) reagents were added to each well of cytotoxicity assay plates, the plate was incubated at 37° C., 5% CO2 for 2.5 hours and the absorbance at 450 nm wavelength was measured, at the same time the absorbance at 630 nm wavelength was read as reference.
(§3) EC50 and CC50 values are calculated by the GraphPad Prism software and are averages where multiple measurements were made. EC50 values for the other exemplified compounds were either not measured or higher than 1 μM.

HBV = HBV inhibitory activity: HBV DNA in the culture medium of HepG2.2.15 cells by q-PCR; assay type: cell-based; conditions: Hepatitis B virus, HepG2.2.15, 144 h
Procedure: as §1, §2
The HBV DAN change in the cell culture medium induced by the compounds was measured by q-PCR (quantitative polymerase chain reaction) method. The HBV DNA in the culture medium was extracted using QIAamp 96 DNA Blood Kit according to the manual and then quantified by q-PCR using the primers and probe in the table below: […]
as §3

[2] = HepG2.2.15 cells, 6 days of compound treatment, HBV DNA in culture medium by q-PCR, highest concentration 10 μM, read-out: EC50

COC(=O)C1=C(C2CCN(S(=O)(=O)c3cnn(Cc4ncco4)c3)CC2)NC(c2nccs2)=NC1c1ccc(F)c(F)c1Cl (stereo not shown) [Compound 465, Methyl 4-(2-chloro-3,4-difluorophenyl)-6-(1-((1-(oxazol-2-ylmethyl)-1H-pyrazol-4-yl)sulfonyl)piperidin-4-yl)-2-(thiazol-2-yl)-1,4-dihydropyrimidine-5-carboxylate] gave a CC50 at 6 days [1] of 35200 nM and an EC50 (HBV; [2]) of 9 nM.

Work on COC(=O)C1=C(C2CCN(S(=O)(=O)C3COC3)C2)NC(c2nccs2)=NC1c1ccc(F)cc1Cl (stereo not shown) [Compound 255, Methyl 4-(2-chloro-4-fluorophenyl)-6-(−1-(oxetan-3-ylsulfonyl)pyrrolidin-3-yl)-2-(thiazol-2-yl)-1,4-dihydropyrimidine-5-carboxylate] yielded a CC50 at 6 days [1] of 24100 nM and an EC50 (HBV; [2]) of 49 nM.

COC(=O)C1=C([C@H]2C[C@@H](C)CO2)NC(c2nccs2)=NC1c1cccc(F)c1Cl (relative stereo) [Compound 171, (cis)-Methyl 4-(2-chloro-3-fluorophenyl)-6-(4-methyltetrahydrofuran-2-yl)-2-(thiazol-2-yl)-1,4-dihydropyrimidine-5-carboxylate] gave a CC50 at 6 days [1] of 15500 nM and an EC50 (HBV; [2]) of 124 nM.

COC(=O)C1=C([C@H]2CC[C@H](NS(=O)(=O)CCCO)CC2)NC(c2nccs2)=NC1c1ccc(F)c(F)c1Cl (relative stereo) [Compound 253B, (trans)-Methyl 4-(2-chloro-3,4-difluorophenyl)-6-(4-(3-hydroxypropylsulfonamido)cyclohexyl)-2-(thiazol-2-yl)-1,4-dihydropyrimidine-5-carboxylate] showed a CC50 at 6 days [1] of 13700 nM and an EC50 (HBV; [2]) of 8 nM.

In the case of COC(=O)C1=C(C2CCN(S(C)(=O)=O)CC2)NC(c2nccs2)=NC1c1ccc(F)c(F)c1Cl (single isomer, unassigned) [Compound 59B, Methyl 4-(2-chloro-3,4-difluorophenyl)-6-(1-(methylsulfonyl)-piperidin-4-yl)-2-(thiazol-2-yl)-1,4-dihydropyrimidine-5-carboxylate], the CC50 at 6 days [1] is reported as 27900 nM and the EC50 (HBV; [2]) is reported as 388 nM.

For COC(=O)C1=C(C2CCOCC2)NC(c2nccs2)=NC1c1ccc(F)cc1Cl (single isomer, unassigned) [Compound 51B, Methyl 4-(2-chloro-4-fluorophenyl)-6-(tetrahydro-2H-pyran-4-yl)-2-(thiazol-2-yl)-1,4-dihydropyrimidine-5-carboxylate], the CC50 at 6 days [1] was greater than 100000 nM and the EC50 (HBV; [2]) was 467 nM.

In the case of COC(=O)C1=C(C2CCN(S(=O)(=O)[C@H]3C[C@H](C(=O)O)C3)CC2)NC(c2nccs2)=NC1c1ccc(F)c(F)c1Cl (single isomer, unassigned) [Compound 232B, (trans)-3-((4-(6-(2-Chloro-3,4-difluorophenyl)-5-(methoxycarbonyl)-2-(thiazol-2-yl)-3,6-dihydropyrimidin-4-yl)piperidin-1-yl)sulfonyl)cyclobutanecarboxylic Acid], the CC50 at 6 days [1] is reported as 60000 nM and the EC50 (HBV; [2]) is reported as 57 nM.

With COC(=O)C1=C([C@H]2CC[C@H](NS(C)(=O)=O)CC2)NC(c2ncc(F)cc2F)=NC1c1ccc(F)cc1Cl (single isomer, unassigned) [Compound 396B, (trans)-Methyl 4-(2-chloro-4-fluorophenyl)-2-(3,5-difluoropyridin-2-yl)-6-(4-(methylsulfonamido)cyclohexyl)-1,4-dihydropyrimidine-5-carboxylate] the CC50 at 6 days [1] was 22500 nM and the EC50 (HBV; [2]) was 20 nM.

CCOC(=O)C1=C([C@@H]2CCN(S(C)(=O)=O)[C@@H](CF)C2)NC(c2nccs2)=NC1c1ccc(F)cc1Cl (relative stereo) [Compound 404N, ethyl 4-(2-chloro-4-fluorophenyl)-6-((trans)-2-(fluoromethyl)-1-(methylsulfonyl)piperidin-4-yl)-2-(thiazol-2-yl)-1,4-dihydropyrimidine-5-carboxylate] showed a CC50 at 6 days [1] of 17700 nM and an EC50 (HBV; [2]) of 155 nM.

In the case of COC(=O)C1=C(C2CCN(S(=O)(=O)c3cnn([C@H]4C[C@H](C(=O)O)C4)c3)CC2)NC(c2nccs2)=NC1c1ccc(F)cc1Cl (stereo partly drawn) [Compound 470, (trans)-3-(4-((4-(6-(2-Chloro-4-fluorophenyl)-5-(methoxycarbonyl)-2-(thiazol-2-yl)-3,6-dihydropyrimidin-4-yl)piperidin-1-yl)sulfonyl)-1H-pyrazol-1-yl)cyclobutanecarboxylic Acid], the CC50 at 6 days [1] is reported as 20100 nM and the EC50 (HBV; [2]) is reported as 56 nM.

For COC(=O)C1=C(C2CCN(S(=O)(=O)C[C@H]3CC[C@H](C(=O)O)CC3)CC2)NC(c2nccs2)=NC1c1ccc(F)cc1Cl (stereo partly drawn) [Compound 422, trans-4-(((4-(6-(2-chloro-4-fluorophenyl)-5-(methoxycarbonyl)-2-(thiazol-2-yl)-3,6-dihydropyrimidin-4-yl)piperidinyl)sulfonyl)methyl)cyclohexane-1-carboxylic Acid], the CC50 at 6 days [1] was 26900 nM and the EC50 (HBV; [2]) was 27 nM.

In the case of COC(=O)C1=C(C2CCN(C(=O)C3CC3)CC2)NC(c2nccs2)=NC1c1ccc(F)cc1Cl (stereo not shown) [Compound 102, Methyl 4-(2-chloro-4-fluorophenyl)-6-(1-(cyclopropanecarbonyl)-piperidin-4-yl)-2-(thiazol-2-yl)-1,4-dihydropyrimidine-5-carboxylate], the CC50 at 6 days [1] is reported as 57000 nM and the EC50 (HBV; [2]) is reported as 130 nM.

Work on COC(=O)C1=C(C2CCN(S(=O)(=O)c3cnn(C[C@@H](C)O)c3)CC2)NC(c2nccs2)=NC1c1ccc(F)cc1Cl (stereo partly drawn) [Compound 360C, methyl 4-(2-chloro-4-fluorophenyl)-6-(1-((1-((R)-2-hydroxypropyl)-1H-pyrazol-4-yl)sulfonyl)piperidin-4-yl)-2-(thiazol-2-yl)-1,4-dihydropyrimidine-5-carboxylate] yielded a CC50 at 6 days [1] of 17000 nM and an EC50 (HBV) of 17 nM.

CCOC(=O)C1=C([C@H]2CC[C@H](C(=O)O)CC2)NC(c2nccs2)=NC1c1ccc(F)c(F)c1Cl (single isomer, unassigned) [Compound 345A, (trans)-(R*)-4-(6-(2-Chloro-3,4-difluorophenyl)-5-(ethoxycarbonyl)-2-(thiazol-2-yl)-3,6-dihydropyrimidin-4-yl)cyclohexanecarboxylic Acid] showed a CC50 at 6 days [1] of 34100 nM and an EC50 (HBV; [2]) of 44 nM.

For COC(=O)C1=C([C@H]2CCC[C@@H](C(=O)OC)C2)NC(c2nccs2)=NC1c1cccc(F)c1Cl (single isomer, unassigned) [Compound 24Q, cis-Methyl 4-(2-chloro-3-fluorophenyl)-6-(3-(methoxycarbonyl)-cyclohexyl)-2-(thiazol-2-yl)-1,4-dihydropyrimidine-5-carboxylate], the CC50 at 6 days [1] was 3520 nM and the EC50 (HBV; [2]) was 964 nM.

COC(=O)C1=C(C2CCN(S(C)(=N)=O)CC2)NC(c2nccs2)=NC1c1ccc(F)cc1Cl (stereo not shown) [Compound 401B, Methyl 4-(2-chloro-4-fluorophenyl)-6-(1-(S-methylsulfonimidoyl)piperidin-4-yl)-2-(thiazol-2-yl)-1,4-dihydropyrimidine-5-carboxylate] showed a CC50 at 6 days [1] of 56200 nM and an EC50 (HBV; [2]) of 29 nM.

Work on COC(=O)C1=C(C2CCN(C)C(=O)C2)NC(c2nccs2)=NC1c1cccc(F)c1Cl (single isomer, unassigned) [Compound 4B, Methyl 4-(2-chloro-3-fluorophenyl)-6-(1-methyl-2-oxopiperidin-4-yl)-2-(thiazol-2-yl)-1,4-dihydropyrimidine-5-carboxylate] yielded a CC50 at 6 days [1] greater than 10000 nM and an EC50 (HBV; [2]) of 351 nM.

With COC(=O)C1=C([C@H]2CC[C@H](C(=O)O)CC2)NC(c2nccs2)=NC1c1cccc(F)c1Br (stereo partly shown) [Compound 152A] the CC50 at 6 days [1] was 39500 nM and the EC50 (HBV; [2]) was 92 nM.

In the case of COC(=O)C1=C([C@H]2CC[C@@H](N(CC(=O)O)S(C)(=O)=O)CC2)NC(c2nccs2)=NC1c1ccc(F)cc1Cl (relative stereo) [Compound 135, 2-(N-(cis-4-(6-(2-chloro-4-fluorophenyl)-5-(methoxycarbonyl)-2-(thiazol-2-yl)-3,6-dihydropyrimidin-4-yl)cyclohexyl)methylsulfonamido)acetic Acid], the CC50 at 6 days [1] is reported as 62500 nM and the EC50 (HBV; [2]) is reported as 346 nM.

With COC(=O)C1=C([C@H]2CC[C@H](NS(=O)(=O)CCO)CC2)NC(c2nccs2)=NC1c1ccc(F)cc1Cl (relative stereo) [Compound 187B, (trans)-Methyl 4-(2-chloro-4-fluorophenyl)-6-(4-(2-hydroxyethylsulfonamido)cyclohexyl)-2-(thiazol-2-yl)-1,4-dihydropyrimidine-5-carboxylate] the CC50 at 6 days [1] was 18900 nM and the EC50 (HBV; [2]) was 32 nM.

Work on COC(=O)C1=C(C2(F)CCN(S(C)(=O)=O)CC2)NC(c2nccs2)=NC1c1cccc(F)c1Cl (stereo not shown) [Compound 36, Methyl 4-(2-chloro-3-fluorophenyl)-6-(4-fluoro-1-(methylsulfonyl)-piperidin-4-yl)-2-(thiazol-2-yl)-1,4-dihydropyrimidine-5-carboxylate] yielded a CC50 at 6 days [1] of 20700 nM and an EC50 (HBV; [2]) of 153 nM.

In the case of COC(=O)C1=C(C2CCCC(C(=O)O)CC2)NC(c2nccs2)=NC1c1ccc(F)cc1Cl (single isomer, unassigned) [Compound 95A, 4-(6-(2-Chloro-4-fluorophenyl)-5-(methoxycarbonyl)-2-(thiazol-2-yl)-3,6-dihydropyrimidin-4-yl)cycloheptanecarboxylic Acid], the EC50 (HBV; [2]) is reported as 101 nM.
